Data: US20100136537A1, “PHOTORECEPTOR PRECURSOR CELLS” (THE REGENTS OF THE UNIVERSITY OF MICHIGAN, priority 2006, published 2010)
Entries after “also recorded” stand apart in the source; their conditions may differ.

Assays:
photoreceptors [1] = assay: MNU-induced photoreceptor degeneration in adult C57Bl/6 mice (TUNEL, immunostaining, ERG); format: in vivo, mouse
Procedure: Preparation of Donor Cells and Recipients. Donor cells were prepared from P0-P2 retinas of the neural retina leucine zipper (Nrl)-GFP transgenic mice (See Example 1). Nrl is a basic motif-leucine zipper transcription factor that is preferentially expressed in rod photoreceptors and required for rod differentiation (See, e.g., Swaroop et al., Proc Natl Acad Sci USA. 1992; 89:266-270; and Mears et al., Nat Genet. 2001; 29:447-452). The Nrl promoter directed expression of enhanced green fluorescent protein (EGFP) specifically to new-born rod precursors and mature rods in the Nrl-GFP transgenic mouse. Eyes were enucleated, and the neural retinas dissected and dissociated with a Papain-Protease-DNase solution. N-methyl-N-nitrosourea (MNU; Sigma, St. Louis, Mo.), an alkylating agent that induces photoreceptor degeneration by forming 7-methyldeoxyguanosine DNA adducts in the nuclei of photoreceptors, was administered at a dose of 60 mg/kg to adult C57B1/6 mice by intraperitoneal injection 7 days before transplantation (See, e.g., Doonan et al., J Neurosci. 2003; 23:5723-5731; Ogino et al., Toxicol Pathol. 1993; 21:21-25; Yuge et al., In Vivo. 1996; 10:483-488).
Tissue Processing. Two or four weeks after surgery, the animals were perfused transcardially with 4% paraformaldehyde (Merck, Darmstadt, Germany) in 0.1 M phosphate buffer after sedation with ketamine (15 mg/kg). Eyes were removed and immersion fixed with 4% paraformaldehyde at 4° C. overnight and then in 25% sucrose-PBS to cryoprotect. The specimens were embedded in an optimal cutting temperature compound (Miles, Elkhart, Ind.) and consecutive 12-μm frozen sections were sliced on a cryostat.
Immunofluorescence. […]
Electrophysiology. […] Animals were placed on a regulated heating pad under dim red illumination and electroretinograms (ERGs) were recorded with a gold loop electrode placed on the corneal surface maintained with 3% methylcellulose gel. […] The amplitude of the a-wave was measured from the prestimulus baseline to the a-wave trough. […]

photoreceptors [2] = conditions: MNU 60 mg/kg i.p.; cited from earlier work
NRL [3] = assay: NRL expression in newborn rat retinal cell cultures (immunoblot); format: cell-based
Procedure: Primary cultures of new-born rat retinal cells and enriched adult porcine photoreceptors were prepared as described (See Traverso et al., (2003) Investig. Ophthalmol. Vis. Sci. 44, 4550-4558). For newborn rat retinal cultures, rat pups were anesthetized and decapitated, the retinas dissected into CO2-independent Dulbecco's modified Eagle's medium and chopped into small fragments. The fragments were washed twice in Ca/Mg-free PBS and then digested in PBS containing 0.1% papain for 25 min at 37° C. Tissue was dissociated by repeated passage through flame polished Pasteur pipettes, then seeded into tissue culture plates precoated with laminin, in Neurobasal A medium (Invitrogen) containing 2% FBS. After 48 h, medium was changed to a chemically defined formula (Neurobasal A supplemented with B27) for a further 48 h, and then treated.
Experimental Treatments and Immunochemistry. […] RA was added to test wells (1, 5, 10, 20, and 40 μM, stock solution prepared in Me2SO, 10 μl/well).
(§1) Protein Expression Analysis.

NRL [4] = assay: NRL expression in adult pig photoreceptor cultures (immunoblot, immunocytochemistry); conditions: 24 h
mouse Nrl promoter [5] = assay: Nrl promoter-luciferase assay in serum-deprived Y79 cells; format: cell-based, human; conditions: pGL3-NI and pGL3-Nm constructs (with putative RAREs), 10 μM RA, 24 h
From the text: (§2) Plasmid Constructs. DNA fragments of 2.5 kb (Nl), 1.2 kb (Nm), and 200 by (Ns) from the 5′-flanking region of the mouse Nrl promoter (GENBANK: AY526079; (See Akimoto et al., (2006) Proc. Natl. Acad. Sci. U.S.A. 103, 3890-3895) were amplified and cloned into pGL3-basic vector (Promega, Madison, Wis.) in-frame with the luciferase reporter gene. The following site-directed mutants of the Nrl promoter were generated from pGL3-Nl using the QUICKCHANGE site-directed mutagenesis kit (Stratagene, La Jolla, Calif.) and sequence-verified: pGL3-Nl-mutIII-1, pGL3-Nl-mutIII-2, and pGL3-Nl-mutII-1, containing deletion of the putative RAREs at positions −781 to −767, −709 to −700, and −453 to −443, respectively.
Transient Transfection and Luciferase Assay. Transient transfection of Y79 cells was performed using FUGENE 6 reagent (Roche Diagnostics, Indianapolis, Ind.). Prior to transfection, cells were serum-starved 24 h in OPTI-MEM (Invitrogen), diluted to 1.5×10^5 cells in 250 μl and seeded into 24-well plates. Transfection was performed with 0.5 μg of promoter-luciferase construct and 1.5 μl of FUGENE 6. […] Luciferase activity was measured using the Luciferase Assay System (Promega, Madison, Wis.). Experiments were repeated at least three times, and the luciferase activity was calculated as a fold change from the base line luciferase activity obtained in the presence of vector only.

mouse Nrl promoter [6] = assay: Nrl promoter-luciferase assay in HEK293 cells; format: cell-based; conditions: dose-dependent response
From the text: as §2
Transient transfection of HEK293 (ATCC CRL-1573) cells was performed using LIPOFECTAMINE (Invitrogen) according to the manufacturer's instructions. The wild type and mutant Nrl promoter-luciferase constructs, and pCMV-β-gal were added to the cells at a concentration of 0.1 μg and 0.05 μg, respectively. After 3 h, 100 μl of Dulbecco's modified Eagle's medium with 0 or 500 nM at RA was added to each well. Cells were harvested after 24 h in 100 μl of GLO lysis buffer (Promega), and luciferase activity was measured.

NRL [7] = assay: NRL expression in serum-starved Y79 cells (immunoblot, Northern blot); format: cell-based, human; conditions: serum-starved Y79 cells, 10 μM RA
Procedure: Cell Culture. Y79 human retinoblastoma cells (ATCC HTB 18) and HEK293 (ATCC CRL-1573) were maintained in RPMI 1640 and Dulbecco's modified Eagle's medium, respectively, under standard conditions with 15% (v/v) fetal bovine serum (FBS), penicillin G (100 units/ml), and streptomycin (100 μg/ml) at 37° C. and 5% CO2. For serum starvation and RA treatment experiments, Y79 cells (5×10^4) were cultured in the presence or absence of the serum (same batch of serum was used in all the experiments), at RA, 9-cis-RA, cycloheximide (CHX), and 4-(E-2-(5,6,7,8-tetrahydro-5,5,8,8-tetramethyl-2-naphthalenl)-1-propenyl) benzoic acid (TTNPB) at indicated concentrations. Me2SO or ethanol was added to Y79 cells in lieu of the soluble factors as negative control.
For protein synthesis inhibition experiments, Y79 cells were serum-starved for 24 h, and then simultaneously treated with RA and CHX for 8 or 24 h. NRL expression was analyzed by immunoblotting. In another set of experiments, serum-starved Y79 cells were first incubated with RA alone for 8 or 24 h and then CHX was added. Cell extracts were then analyzed 24 h later for examining NRL expression by immunoblotting.
as §1

CEP290 = conditions: previous studies; cited from earlier work
[8] = test system: chondroitin sulfate proteoglycans (CSPG); assay: CS-56 staining of glial scar after subretinal injection with or without ChABC; format: in vivo, mouse; conditions: ChABC 0.025 U/μl, 1 μl subretinal, MNU-treated mice
Procedure: Transplantation Procedure. One μl of dissociated Nrl-GFP+ photoreceptor cell suspension (1.0×10^5 cells/μl each) without or with chondroitinase ABC (ChABC) (0.025 U/μl, Wako, Tokyo, Japan) (Nrl group, Nrl/ChABC group, respectively) or 1 μl of PBS (sham group) was drawn into a tapered glass pipette connected to a modified tube and injected through the sclera into the subretinal space. The procedure was performed under surgical microscope.
Immunofluorescence. Sections were washed in PBS, preincubated with a blocking solution (containing 20% skim milk and 0.3% Triton X-100 in PBS) for 30 minutes, and then incubated overnight at 4° C. with primary antibodies diluted in a blocking solution (containing 5% skim milk and 0.3% Triton X-100 in PBS). The primary antibodies and working dilutions were as follows: mouse and rabbit anti-GFP (1:500, Molecular Probes, Eugene, Oreg.), mouse monoclonal CS-56 IgM antibody (1:200, Sigma) that reacts specifically with chondroitin sulfate containing proteoglycans, and anti-vesicular glutamate transporter 1 (VGluT1; 1:100, Chemicon, Hampshire, UK), a marker for active presynaptic formation (See, e.g., Fujiyama et al., J Comp Neurol. 2003; 465:234-249). Sections were incubated for 90 minutes with secondary antibodies diluted 1:500 in PBS containing 5% skim milk and 0.3% Triton X-100. […]

## CN(N=O)C(N)=O [MNU, N-methyl-N-nitrosourea]
Photoreceptors [1]; 1 week after single i.p. MNU 60 mg/kg
  dark-adapted ERG response: does not detect a response; also recorded: no responses were detectable
Photoreceptors [1]; 1 week after single i.p. MNU 60 mg/kg, VGluT1 and Cytox blue staining
  state of outer nuclear layer / photoreceptor layer: completely destroyed; also recorded: essentially destroyed
Photoreceptors [1]; 2 days after single i.p. MNU 60 mg/kg
  TUNEL labeling of retina: nuclear labeling in the majority of the photoreceptor cells
Photoreceptors [2]
  time to apoptosis in all photoreceptors after injection: ≤ 1 week

## CC1=C(/C=C/C(C)=C/C=C/C(C)=C/C(=O)O)C(C)(C)CCC1 [at RA]
NRL [3]; doses above 5-20 μM (40 μM RA), newborn rat retina cells
  toxicity in culture: some toxicity; also recorded: toxic for cell survival
NRL [3]; newborn rat retinal cultures, 24 h
  RA concentration giving maximal effects on NRL expression: 5 to 20 µM
NRL [4]
  RA concentration giving maximal effects on NRL expression: 5 to 20 µM
Mouse Nrl promoter [5]
  increase in luciferase activity: > 2 fold
Mouse Nrl promoter [6]
  at RA concentration of maximum effect on pGL3-Nl luciferase activity: 500 nM
NRL [7]
  incubation time after which an increase in NRL protein was observed: 8 h

## COC(=O)Nc1nc2ccc(C(=O)c3cccs3)cc2[nH]1 [nocodazole]
CEP290
  centrosomal localization of CEP290 after microtubule depolymerization: does not alter centrosomal localization of CEP290

## chondroitinase ABC [ChABC]
[8]
  degradation of CSPG in the ECM of the glial scar at the injection site (CS-56 staining): substantially, if not completely, degraded
